Test system: KRAS G12V dependent lung adenocarcinoma cell line, NCI-H441
Test: Cellular pERK (Thr202/Tyr204) FRET/HTRF assay
Type: cell-based
Conditions: Homo sapiens, NCI-H441, cellular pERK (Thr202/Tyr204) HTRF, NCI-H441 cells
Outline: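 Adherent NCI-H441 cells, plated the previous night, receive test compound for one hour at 37 °C. They are then lysed with a buffer containing phosphatase inhibitors and incubated at room temperature with Eu3+-cryptate and d2 labelled anti-pERK antibodies. HTRF signal gives IC50 by curve fitting.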

| SMILES | IC50 |
| --- | --- |
| [2H]C([2H])(Oc1nc(N2CCOC[C@H]3[C@H](F)[C@H]32)c2cc(C(F)(F)F)c(-c3cccc4ccccc34)c(F)c2n1)[C@@]12CCCN1C[C@H](F)C2 [Example 415, (1S,7S,8S)-8-fluoro-2-(8-fluoro-2-(((2R,7aS)-2-fluorotetrahydro-1H-pyrrolizin-7a(5H)-yl)methoxy-d2)-7-(naphthalen-1-yl)-6-(trifluoromethyl)quinazolin-4-yl)-5-oxa-2-azabicyclo[5.1.0]octane] | 500 to 10000 nM |
| [2H]C([2H])(Oc1nc(N2CCOC[C@@H]3[C@@H](F)[C@@H]32)c2cc(Cl)c(-c3nc(N)cc(C)c3C(F)(F)F)c(F)c2n1)[C@@]12CCCN1C[C@H](F)C2 [Example 160, 6-(6-chloro-8-fluoro-4-((1R,7R,8R)-8-fluoro-5-oxa-2-azabicyclo[5.1.0]octan-2-yl)-2-(((2R,7aS)-2-fluorotetrahydro-1H-pyrrolizin-7a(5H)-yl)methoxy-d2)quinazolin-7-yl)-4-methyl-5-(trifluoromethyl)pyridin-2-amine] | 50 to 500 nM |
| [2H]C([2H])(Oc1nc(N2CCOC[C@H]3[C@H](F)[C@H]32)c2cnc(-c3cc(N)c(F)cc3C(F)(F)F)c(F)c2n1)[C@@]12CCCN1C[C@H](F)C2 [Example 299, 2-fluoro-5-(8-fluoro-4-((1S,7S,8S)-8-fluoro-5-oxa-2-azabicyclo[5.1.0]octan-2-yl)-2-(((2R,7aS)-2-fluorotetrahydro-1H-pyrrolizin-7a(5H)-yl)methoxy-d2)pyrido[4,3-d]pyrimidin-7-yl)-4-(trifluoromethyl)aniline] | 50 to 500 nM |
| [2H]C([2H])(Oc1nc(N2CCOC[C@H]3[C@H](F)[C@H]32)c2cc(F)c(-c3nc(N)cc(C)c3C(F)(F)F)c(F)c2n1)[C@@]12CCCN1C[C@H](F)C2 [Example 175, 6-(6,8-difluoro-4-((1S,7S,8S)-8-fluoro-5-oxa-2-azabicyclo[5.1.0]octan-2-yl)-2-(((2R,7aS)-2-fluorotetrahydro-1H-pyrrolizin-7a(5H)-yl)methoxy-d2)quinazolin-7-yl)-4-methyl-5-(trifluoromethyl)pyridin-2-amine] | 50 to 500 nM |
| [2H]C([2H])(F)Oc1c(F)ccc2cc(N)cc(-c3ncc4c(N5CCOC[C@H]6[C@H](F)[C@H]65)nc(OC[C@@]56CC7(CC7)CN5CCC65CC5)nc4c3F)c12 [Example 227, 4-(2-(((S)-dihydro-5′H-dispiro[cyclopropane-1,1′-pyrrolizine-6′,1″- cyclopropan]-7a′(7′H)-yl)methoxy)-8-fluoro-4-((1S,7S,8S)-8-fluoro-5-oxa-2-azabicyclo[5.1.0]octan-2-yl)pyrido[4,3-d]pyrimidin-7-yl)-6-fluoro-5-(fluoromethoxy-d2)naphthalen-2-amine] | < 50 nM |
| C#Cc1c(F)ccc2cc(N)cc(-c3ncc4c(N5CCOC[C@H]6[C@H](F)[C@H]65)nc(OC[C@@]56CCCN5CC(=C(F)F)C6)nc4c3C)c12 [Example 428, 4-(2-(((S)-2-(difluoromethylene)tetrahydro-1H-pyrrolizin-7a(5H)-yl)methoxy)-4-((1S,7S,8S)-8-fluoro-5-oxa-2-azabicyclo[5.1.0]octan-2-yl)-8-methylpyrido[4,3-d]pyrimidin-7-yl)-5-ethynyl-6-fluoronaphthalen-2-amine] | < 50 nM |
| [2H]C([2H])(F)Oc1c(F)ccc2cccc(-c3ncc4c(N5CCCC[C@H]6[C@H](F)[C@H]65)nc(OC[C@]56CC(=C)CN5CCC65CC5)nc4c3F)c12 [Example 407, (R)-7a′-(((8-fluoro-7-(7-fluoro-8-(fluoromethoxy-d2)naphthalen-1-yl)-4-((1S,7R,8S)-8-fluoro-2-azabicyclo[5.1.0]octan-2-yl)pyrido[4,3-d]pyrimidin-2-yl)oxy)methyl)-6′-methylenehexahydrospiro[cyclopropane-1,1′-pyrrolizine]] | < 50 nM |

The next lines start with the values.

| IC50 | SMILES |
| --- | --- |
| < 50 nM | [2H]C([2H])(F)Oc1c(F)ccc2cccc(-c3ncc4c(N5CCCC[C@H]6[C@H](F)[C@H]65)nc(OC[C@]56C/C(=C\F)CN5CCC65CC5)nc4c3F)c12 [Example 382, (R,E)-7a′-(((8-fluoro-7-(7-fluoro-8-(fluoromethoxy-d2)naphthalen-1-yl)-4-((1S,7R,8S)-8-fluoro-2-azabicyclo[5.1.0]octan-2-yl)pyrido[4,3-d]pyrimidin-2-yl)oxy)methyl)-6′-(fluoromethylene)hexahydrospiro [cyclopropane-1,1′-pyrrolizine]] |
| < 50 nM | C#Cc1c(Cl)ccc2cc(O)cc(-c3ncc4c(N5CCOC[C@H]6[C@H](F)[C@H]65)nc(OC[C@@H]5CCCN5C)nc4c3F)c12 [Example 294, 6-chloro-5-ethynyl-4-(8-fluoro-4-((1S,7S,8S)-8-fluoro-5-oxa-2-azabicyclo[5.1.0]octan-2-yl)-2-(((S)-1-methylpyrrolidin-2-yl)methoxy)pyrido[4,3-d]pyrimidin-7-yl)naphthalen-2-ol] |
| < 50 nM | [2H]C([2H])(F)Oc1c(F)cc(F)c2cccc(-c3ncc4c(N5CCOC[C@H]6[C@H](F)[C@H]65)nc(OC([2H])([2H])[C@@]56CCCN5C[C@H](F)C6)nc4c3F)c12 [Example 151, (1S,7S,8S)-2-(7-(5,7-difluoro-8-(fluoromethoxy-d2)naphthalen-1-yl)-8-fluoro-2-(((2R,7aS)-2-fluorotetrahydro-1H-pyrrolizin-7a(5H)-yl)methoxy-d2)pyrido[4,3-d]pyrimidin-4-yl)-8-fluoro-5-oxa-2-azabicyclo[5.1.0]octane] |
| < 50 nM | [2H]C([2H])([2H])Oc1c(F)c(F)c(F)c2cc(N)cc(-c3ncc4c(N5CCOC([2H])([2H])[C@H]6[C@H](F)[C@H]65)nc(OC([2H])([2H])[C@@]56CCCN5C[C@H](F)C6)nc4c3F)c12 [Example 124, 6,7,8-trifluoro-4-(8-fluoro-4-((1S,7S,8S)-8-fluoro-5-oxa-2-azabicyclo[5.1.0]octan-2-yl-6,6-d2)-2-(((2R,7aS)-2-fluorotetrahydro-1H-pyrrolizin-7a(5H)-yl)methoxy-d2)pyrido[4,3-d]pyrimidin-7-yl)-5-(methoxy-d3)naphthalen-2-amine] |
| < 50 nM | [2H]C([2H])(Oc1nc(N2CCOC[C@H]3[C@H](F)[C@H]32)c2cnc(-c3nc(N)cc4ccc(F)c(C#C)c34)c(F)c2n1)[C@@]12CCCN1C[C@H](F)C2 [Example 154] |
| < 50 nM | [2H]C([2H])(Oc1nc(N2CCOC[C@H]3[C@H](F)[C@H]32)c2c(OC)nc(-c3cc(O)cc4ccc(F)c(C#C)c34)c(F)c2n1)[C@@]12CCCN1C[C@H](F)C2 [Example 241, 5-ethynyl-6-fluoro-4-(8-fluoro-4-((1S,7S,8S)-8-fluoro-5-oxa-2-azabicyclo[5.1.0]octan-2-yl)-2-(((2R,7aS)-2-fluorotetrahydro-1H-pyrrolizin-7a(5H)-yl)methoxy-d2)-5-methoxypyrido[4,3-d]pyrimidin-7-yl)naphthalen-2-ol] |
| < 50 nM | C#Cc1c(F)ccc2cc(N)cc(-c3ncc4c(N5CCOC[C@H]6[C@H](F)[C@H]65)nc(OC[C@]56CC(=C)CN5CCC65CC5)nc4c3C)c12 [Example 429, 5-ethynyl-6-fluoro-4-(4-((1S,7S,8S)-8-fluoro-5-oxa-2-azabicyclo[5.1.0]octan-2-yl)-8-methyl-2-(((R)-6′-methylenetetrahydrospiro[cyclopropane-1,1′-pyrrolizin]-7a′(5′H)-yl)methoxy)pyrido[4,3-d]pyrimidin-7-yl)naphthalen-2-amine] |
| < 50 nM | [2H]C([2H])(F)Oc1c(F)ccc2cccc(-c3ncc4c(N5CCOC[C@H]6[C@H](F)[C@H]65)nc(OC[C@@]56CCCN5CC(=C(F)F)C6)nc4c3F)c12 [Example 146, (1S,7S,8S)-2-(2-(((S)-2-(difluoromethylene)tetrahydro-1H-pyrrolizin-7a(5H)-yl)methoxy)-8-fluoro-7-(7-fluoro-8-(fluoromethoxy-d2)naphthalen-1-yl)pyrido[4,3-d]pyrimidin-4-yl)-8-fluoro-5-oxa-2-azabicyclo[5.1.0]octane] |

Same assay, conditions: Homo sapiens, NCI-H441, pERK HTRF, NCI-H441 cells (KRAS G12V)

| IC50 | SMILES |
| --- | --- |
| < 50 nM | [2H]C([2H])([2H])Oc1c(F)c(F)c(F)c2cc(N)cc(-c3ncc4c(N5CCCC[C@H]6[C@H](F)[C@H]65)nc(OC([2H])([2H])[C@@]56CCCN5C[C@H](F)C6)nc4c3F)c12 [Example 69, 6,7,8-Trifluoro-4-(8-fluoro-4-((1S,7R,8S)-8-fluoro-2-azabicyclo[5.1.0]octan-2-yl)-2-(((2R,7aS)-2-fluorotetrahydro-1H-pyrrolizin-7a(5H)-yl)methoxy-d2)pyrido[4,3-d]pyrimidin-7-yl)-5-(methoxy-d3)naphthalen-2-amine] |
| 50 to 500 nM | [2H]C([2H])(Oc1nc(N2CCO[C@@H]3C[C@@H]32)c2cnc(-c3cc(N)cc4cc(F)c(F)c(C#C)c34)c(F)c2n1)[C@@]12CCCN1C[C@H](F)C2 [Example 31, 4-(4-((1R,6S)-2-Oxa-5-azabicyclo[4.1.0]heptan-5-yl)-8-fluoro-2-(((2R,7aS)-2-fluorotetrahydro-1H-pyrrolizin-7a(5H)-yl)methoxy-d2)pyrido[4,3-d]pyrimidin-7-yl)-5-ethynyl-6,7-difluoronaphthalen-2-amine] |
| 50 to 500 nM | [2H]C([2H])(Oc1nc(N2CCCC[C@H]3[C@H](F)[C@H]32)c2cnc(-c3cncc4cc(F)c(F)c(OC)c34)c(F)c2n1)[C@@]12CCCN1C[C@H](F)C2 [Example 83, 7-(6,7-Difluoro-5-methoxyisoquinolin-4-yl)-8-fluoro-4-((1S,7R,8S)-8-fluoro-2-azabicyclo[5.1.0]octan-2-yl)-2-(((2R,7aS)-2-fluorotetrahydro-1H-pyrrolizin-7a(5H)-yl)methoxy-d2)pyrido[4,3-d]pyrimidine] |
| 50 to 500 nM | C#Cc1c(F)ccc2cc(N)cc(-c3ncc4c(N5CCCCC6C5C6(F)F)nc(OC[C@@]56CCCN5C[C@H](F)C6)nc4c3F)c12 (stereo partly drawn) [Example 57, 4-(4-(8,8-Difluoro-2-azabicyclo[5.1.0]octan-2-yl)-8-fluoro-2-(((2R,7aS)-2-fluorotetrahydro-1H-pyrrolizin-7a(5H)-yl)methoxy)pyrido[4,3-d]pyrimidin-7-yl)-5-ethynyl-6-fluoronaphthalen-2-amine] |

— patent publication US20250282799A1, “SUBSTITUTED PYRIDO[4,3-d]PYRIMIDINES AS KRAS MODULATORS” (Alterome Therapeutics, Inc., priority 2023, published 2025)
